Among the data in ChEMBL document CHEMBL3826970, “Design, synthesis, anti-tumor activity, and molecular modeling of quinazoline and pyrido[2,3-d]pyrimidine derivatives targeting epidermal growth factor receptor” (Eur J Med Chem, 2016) are IC50 and inhibition values, retold here.

Some results are limits rather than exact numbers.

In one assay the test system is SK-BR-3. Put plainly: cells. The class given is functional, cell-based. The settings on record: Homo sapiens, SK-BR-3, 72 h.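 Further: antiproliferative effect determined with an MTT read-out.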
For the next assay, the system named is A549. Kind of assay: cells. The settings on record: Homo sapiens, A549, 72 h. The class given is functional, cell-based.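 Further: antiproliferative effect read out by MTT assay.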
In the next assay the test system is MCF7. Put plainly: cells. The class given is functional, cell-based. The settings on record: Homo sapiens, MCF7, 72 h.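 Further: antiproliferative effect quantified with an MTT readout.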
Another assay deals with MDA-MB-231. Put plainly: cells. The assay is classed as functional, cell-based. The note with it: Homo sapiens, MDA-MB-231, 72 h.
Assay [1] has as its target T1, Epidermal growth factor receptor (Homo sapiens, UniProt P00533). The settings on record: at 1 µM.
A short description of assay [2]: Antiproliferative activity against human BT474 cells after 72 hrs by MTT assay. The class given is functional, cell-based. The note with it: BT-474, 72 h.
In assay [3] the target is Receptor tyrosine-protein kinase erbB-2 (Homo sapiens, UniProt P04626). Put plainly: Inhibition of cytoplasmic His-tagged human ErbB2 expressed in baculovirus system by z-lyte assay.
Sequence of Receptor tyrosine-protein kinase erbB-2 (P04626 whole entry, the tested form may be a part): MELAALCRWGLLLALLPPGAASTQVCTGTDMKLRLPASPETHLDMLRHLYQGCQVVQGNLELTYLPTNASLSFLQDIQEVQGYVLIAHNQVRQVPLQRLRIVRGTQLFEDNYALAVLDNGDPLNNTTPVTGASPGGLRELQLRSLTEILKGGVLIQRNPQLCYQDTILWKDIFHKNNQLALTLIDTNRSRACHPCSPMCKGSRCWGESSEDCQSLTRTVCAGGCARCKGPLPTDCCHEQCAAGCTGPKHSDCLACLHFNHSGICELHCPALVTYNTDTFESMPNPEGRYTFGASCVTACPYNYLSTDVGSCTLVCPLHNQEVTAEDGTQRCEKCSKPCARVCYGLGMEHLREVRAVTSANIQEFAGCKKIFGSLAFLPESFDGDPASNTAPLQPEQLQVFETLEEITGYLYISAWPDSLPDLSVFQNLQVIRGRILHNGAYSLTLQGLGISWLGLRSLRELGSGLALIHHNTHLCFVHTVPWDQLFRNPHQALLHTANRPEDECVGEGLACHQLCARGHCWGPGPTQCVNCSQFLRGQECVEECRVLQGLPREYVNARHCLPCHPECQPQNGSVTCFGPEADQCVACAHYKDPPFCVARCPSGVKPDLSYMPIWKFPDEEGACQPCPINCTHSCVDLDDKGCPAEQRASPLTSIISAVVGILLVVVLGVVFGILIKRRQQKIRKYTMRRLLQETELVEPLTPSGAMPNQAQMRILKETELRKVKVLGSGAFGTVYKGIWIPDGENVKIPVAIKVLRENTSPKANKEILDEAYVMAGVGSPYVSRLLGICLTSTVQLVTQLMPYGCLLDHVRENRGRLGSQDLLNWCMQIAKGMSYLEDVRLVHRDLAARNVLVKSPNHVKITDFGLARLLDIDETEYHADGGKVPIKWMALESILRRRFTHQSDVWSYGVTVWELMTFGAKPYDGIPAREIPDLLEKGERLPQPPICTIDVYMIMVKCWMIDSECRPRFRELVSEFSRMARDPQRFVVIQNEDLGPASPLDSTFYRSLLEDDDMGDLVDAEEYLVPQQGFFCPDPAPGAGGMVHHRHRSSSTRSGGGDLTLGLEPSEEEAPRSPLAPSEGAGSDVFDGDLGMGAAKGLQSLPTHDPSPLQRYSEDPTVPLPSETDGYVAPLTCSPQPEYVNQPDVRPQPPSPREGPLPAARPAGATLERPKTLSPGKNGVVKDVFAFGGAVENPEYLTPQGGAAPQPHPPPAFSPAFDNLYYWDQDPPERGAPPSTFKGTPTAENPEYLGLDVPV
For assay [4], the target named is Epidermal growth factor receptor (Homo sapiens, UniProt P00533, L858R/T790M). Kind of assay: Inhibition of cytoplasmic GST-tagged human recombinant EGFR L858R/T790M double mutant (668-1210 residues) expressed in baculovirus system by z-lyte assay.
Sequence of Epidermal growth factor receptor (Homo sapiens, UniProt P00533, L858R/T790M) (P00533 25-1210 T790M/L858R limits assumed): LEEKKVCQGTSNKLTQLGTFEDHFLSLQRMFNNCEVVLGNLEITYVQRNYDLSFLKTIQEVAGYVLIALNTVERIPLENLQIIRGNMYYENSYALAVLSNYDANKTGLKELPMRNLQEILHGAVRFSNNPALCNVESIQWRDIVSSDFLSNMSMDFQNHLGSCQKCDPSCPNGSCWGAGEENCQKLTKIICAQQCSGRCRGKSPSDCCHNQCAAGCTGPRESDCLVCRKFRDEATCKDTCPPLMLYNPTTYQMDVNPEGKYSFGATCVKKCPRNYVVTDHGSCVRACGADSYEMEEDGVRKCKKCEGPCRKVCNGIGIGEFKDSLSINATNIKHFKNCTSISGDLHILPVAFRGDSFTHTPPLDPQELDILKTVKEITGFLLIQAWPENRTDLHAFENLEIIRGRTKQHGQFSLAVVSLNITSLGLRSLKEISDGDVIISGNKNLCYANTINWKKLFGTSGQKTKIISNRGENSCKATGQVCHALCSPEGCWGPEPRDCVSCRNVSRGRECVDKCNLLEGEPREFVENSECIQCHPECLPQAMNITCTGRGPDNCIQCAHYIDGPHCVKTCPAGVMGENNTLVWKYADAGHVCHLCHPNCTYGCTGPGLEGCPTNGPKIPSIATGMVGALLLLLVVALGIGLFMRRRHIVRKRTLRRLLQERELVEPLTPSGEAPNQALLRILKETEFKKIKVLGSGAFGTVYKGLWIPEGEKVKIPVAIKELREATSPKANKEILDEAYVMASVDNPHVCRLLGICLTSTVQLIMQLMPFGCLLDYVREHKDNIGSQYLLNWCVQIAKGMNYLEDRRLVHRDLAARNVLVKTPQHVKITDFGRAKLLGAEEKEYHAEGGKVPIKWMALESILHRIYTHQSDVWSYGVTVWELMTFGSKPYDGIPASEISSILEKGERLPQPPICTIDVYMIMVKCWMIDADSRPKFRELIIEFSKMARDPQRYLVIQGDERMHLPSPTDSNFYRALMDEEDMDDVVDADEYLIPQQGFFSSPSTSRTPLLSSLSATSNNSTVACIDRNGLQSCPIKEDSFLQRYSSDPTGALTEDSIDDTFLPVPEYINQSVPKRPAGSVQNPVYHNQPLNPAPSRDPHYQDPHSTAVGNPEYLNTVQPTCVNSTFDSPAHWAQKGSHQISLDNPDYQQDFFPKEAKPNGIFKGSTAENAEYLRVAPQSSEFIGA
Assay [5] addresses Epidermal growth factor receptor (Homo sapiens, UniProt P00533, L858R).
Description: Inhibition of cytoplasmic GST-tagged human recombinant EGFR L858R mutant expressed in baculovirus system by z-lyte assay
Assay [6] addresses T1, Epidermal growth factor receptor.
Description: Inhibition of cytoplasmic GST-tagged human recombinant EGFR expressed in baculovirus system by z-lyte assay
Assay [7] has as its target Receptor tyrosine-protein kinase erbB-4 (Homo sapiens, UniProt Q15303). Put plainly: Inhibition of cytoplasmic GST-tagged human ErbB4 expressed in baculovirus system by z-lyte assay.

Sequence of Epidermal growth factor receptor (Homo sapiens, UniProt P00533, L858R) (P00533 25-1210 L858R limits assumed): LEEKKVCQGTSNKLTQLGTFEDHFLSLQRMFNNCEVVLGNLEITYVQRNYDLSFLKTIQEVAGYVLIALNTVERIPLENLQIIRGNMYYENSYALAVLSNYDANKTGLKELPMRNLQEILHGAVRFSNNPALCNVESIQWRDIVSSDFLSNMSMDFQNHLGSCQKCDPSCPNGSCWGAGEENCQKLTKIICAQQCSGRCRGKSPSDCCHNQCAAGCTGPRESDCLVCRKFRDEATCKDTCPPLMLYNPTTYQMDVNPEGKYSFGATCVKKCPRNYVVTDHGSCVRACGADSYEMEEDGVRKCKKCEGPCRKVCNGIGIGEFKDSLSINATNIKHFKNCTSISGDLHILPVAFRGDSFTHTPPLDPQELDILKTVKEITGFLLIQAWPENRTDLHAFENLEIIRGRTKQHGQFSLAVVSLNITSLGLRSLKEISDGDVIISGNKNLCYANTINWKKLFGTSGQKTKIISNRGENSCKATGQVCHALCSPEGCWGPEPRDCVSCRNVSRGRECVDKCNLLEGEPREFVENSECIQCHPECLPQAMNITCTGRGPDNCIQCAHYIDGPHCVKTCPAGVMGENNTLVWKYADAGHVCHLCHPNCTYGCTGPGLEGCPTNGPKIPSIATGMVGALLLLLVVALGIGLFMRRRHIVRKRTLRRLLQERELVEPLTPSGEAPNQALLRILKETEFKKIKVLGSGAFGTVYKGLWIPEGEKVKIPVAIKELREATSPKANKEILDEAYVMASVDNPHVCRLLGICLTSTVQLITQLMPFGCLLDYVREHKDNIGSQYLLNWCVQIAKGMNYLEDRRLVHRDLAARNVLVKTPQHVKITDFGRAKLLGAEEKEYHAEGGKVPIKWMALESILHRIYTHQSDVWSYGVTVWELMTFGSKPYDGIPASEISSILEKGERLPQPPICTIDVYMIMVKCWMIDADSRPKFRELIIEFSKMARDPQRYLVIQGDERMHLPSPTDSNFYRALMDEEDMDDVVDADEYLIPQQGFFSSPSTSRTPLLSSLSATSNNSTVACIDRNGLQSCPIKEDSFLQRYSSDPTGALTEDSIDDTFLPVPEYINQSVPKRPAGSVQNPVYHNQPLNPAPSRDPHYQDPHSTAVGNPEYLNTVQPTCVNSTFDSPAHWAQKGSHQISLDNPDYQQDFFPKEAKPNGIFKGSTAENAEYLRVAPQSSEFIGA
Sequence of Receptor tyrosine-protein kinase erbB-4 (Q15303 whole entry): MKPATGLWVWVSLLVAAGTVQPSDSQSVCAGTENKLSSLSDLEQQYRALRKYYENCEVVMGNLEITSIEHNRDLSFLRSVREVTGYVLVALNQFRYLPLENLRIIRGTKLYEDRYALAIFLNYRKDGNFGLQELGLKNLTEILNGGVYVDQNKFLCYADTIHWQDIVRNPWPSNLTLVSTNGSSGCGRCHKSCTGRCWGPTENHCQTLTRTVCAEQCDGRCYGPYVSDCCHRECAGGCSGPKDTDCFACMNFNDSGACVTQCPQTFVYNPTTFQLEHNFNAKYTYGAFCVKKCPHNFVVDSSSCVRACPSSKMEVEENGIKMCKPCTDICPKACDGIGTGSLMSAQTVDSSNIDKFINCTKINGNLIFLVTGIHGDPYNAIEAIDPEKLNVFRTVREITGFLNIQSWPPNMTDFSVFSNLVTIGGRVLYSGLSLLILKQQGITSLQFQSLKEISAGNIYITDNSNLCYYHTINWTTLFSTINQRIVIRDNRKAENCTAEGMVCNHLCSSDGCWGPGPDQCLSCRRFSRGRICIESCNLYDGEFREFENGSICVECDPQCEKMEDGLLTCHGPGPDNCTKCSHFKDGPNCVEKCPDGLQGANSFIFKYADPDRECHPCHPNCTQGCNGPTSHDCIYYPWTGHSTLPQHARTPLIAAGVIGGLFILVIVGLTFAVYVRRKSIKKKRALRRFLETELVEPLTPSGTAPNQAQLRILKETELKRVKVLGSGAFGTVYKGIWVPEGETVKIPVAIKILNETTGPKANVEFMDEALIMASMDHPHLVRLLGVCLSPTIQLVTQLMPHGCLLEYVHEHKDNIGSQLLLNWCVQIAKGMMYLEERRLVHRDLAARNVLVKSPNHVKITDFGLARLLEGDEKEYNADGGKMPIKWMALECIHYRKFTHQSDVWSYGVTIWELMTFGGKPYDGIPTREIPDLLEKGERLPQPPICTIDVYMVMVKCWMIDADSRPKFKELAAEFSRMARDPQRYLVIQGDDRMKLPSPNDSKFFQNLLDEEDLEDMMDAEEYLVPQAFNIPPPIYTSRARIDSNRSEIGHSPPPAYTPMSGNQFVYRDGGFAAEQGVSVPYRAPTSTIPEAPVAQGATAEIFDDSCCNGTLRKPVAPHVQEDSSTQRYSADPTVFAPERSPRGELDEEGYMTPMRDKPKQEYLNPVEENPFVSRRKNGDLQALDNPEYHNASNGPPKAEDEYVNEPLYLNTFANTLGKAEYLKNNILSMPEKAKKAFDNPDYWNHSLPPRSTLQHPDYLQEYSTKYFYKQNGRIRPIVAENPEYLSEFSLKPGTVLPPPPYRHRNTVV
Description for A549: Antiproliferative activity against human A549 cells after 72 hrs by MTT assay
Description for SK-BR-3: Antiproliferative activity against human SK-BR-3 cells after 72 hrs by MTT assay

Consider `CC(Nc1ncnc2ncc(-c3cnn(C)c3)cc12)c1c(Cl)ccc(F)c1Cl` (stereo not drawn), for which the IC50 (in the assay with SK-BR-3; in the assay with A549; in the assay on MCF7; with MDA-MB-231; in [2]) was above 100 µM each time. Further, the inhibition in assay [1] is 9%.

For `CC(Oc1ncnc2ccc(-c3cnn(C4CCNCC4)c3)cc12)c1c(Cl)ccc(F)c1Cl` (stereo not drawn), the IC50 in the assay with SK-BR-3 worked out at 2.5 µM; in the assay on A549 it was 6.75 µM; with MCF7, 2.67 µM; with MDA-MB-231 it was 6.77 µM; in [2], 4.14 µM. In assay [1], the inhibition came out at 52%.

Regarding `COc1cccc(CNc2ncnc3ccc(-c4cnn(C)c4)cc23)c1`, the IC50 was 36 µM in the assay on SK-BR-3; 48.9 µM with A549; 40 µM in the assay with MCF7; 28.5 µM in the assay on MDA-MB-231; 30.4 µM in assay [2]. For the same compound, the inhibition in assay [1] was 67%.

For `CC(Oc1nc(N)nc2ccc(-c3cnn(C4CCNCC4)c3)cc12)c1c(Cl)ccc(F)c1Cl` (stereo not drawn), the concentration for half-maximal inhibition (IC50) in the assay on SK-BR-3 is 7.12 µM; in the assay on A549, 9.49 µM; in the assay with MCF7, 1.24 µM; with MDA-MB-231 it was 7 µM; in assay [2] it was 3 µM. For the same compound, the inhibition in assay [1] was determined as 7%.

For `C#Cc1cccc(Nc2ncnc3ccc(-c4cnn(C)c4)cc23)c1`, the 50% inhibitory concentration (IC50) is 0.59 µM in [3]; above 1 µM in assay [4]; 5.87 µM in the assay on SK-BR-3; 9.86 µM with A549; 11.4 µM with MCF7; 16.9 µM in the assay on MDA-MB-231. Also, the IC50 came to 0.00425 µM in assay [5], 0.00358 µM in assay [6], 5.68 µM in [2] and 0.782 µM in [7]. Moreover, in assay [1], the inhibition was found to be 102%.

As to `Cn1cc(-c2ccc3ncnc(Nc4ccc(F)c(Cl)c4)c3c2)cn1`, the IC50 in assay [3] is 0.676 µM; in [4], above 1 µM; in the assay on SK-BR-3, 3.1 µM; in the assay on A549, above 100 µM; with MCF7, 52.2 µM; in the assay with MDA-MB-231, 62.6 µM. For the same compound, the concentration for half-maximal inhibition (IC50) stood at 0.0035 µM in assay [5], 0.00297 µM in [6], 5.26 µM in assay [2] and 0.801 µM in assay [7]. Further, in assay [1], the inhibition was determined as 101%.

For the compound `CC(Nc1nc(N)nc2ccc(-c3cnn(C4CCNCC4)c3)cc12)c1c(Cl)ccc(F)c1Cl` (stereo not drawn), the IC50 in the assay on SK-BR-3 turned out to be 1.58 µM; with A549, 8.8 µM; with MCF7, 2.23 µM; in the assay on MDA-MB-231 it was 4.48 µM; in assay [2] it was 5.1 µM. For the same compound, the inhibition in assay [1] was 17%.

`Cn1cc(-c2cnc3ncnc(NCc4cccc([N+](=O)[O-])c4)c3c2)cn1`: the IC50 (in the assay with SK-BR-3; in the assay with A549; in the assay on MCF7; in the assay with MDA-MB-231; in [2]) was above 100 µM in each case. Further, the inhibition in [1] stood at 30%.

Take `c1cnc2ccc(Nc3ncnc4ccc(-c5cnn(C6CCNCC6)c5)cc34)cc2c1`: the concentration for half-maximal inhibition (IC50) in assay [3] is 1.35 µM; in [4], above 1 µM; in the assay on SK-BR-3 it was 2.66 µM; with A549, 32 µM; in the assay with MCF7, 61.9 µM; with MDA-MB-231 it was 30.3 µM. Further, the IC50 is 0.035 µM in [5], 0.0282 µM in assay [6], 12.8 µM in assay [2] and 1.1 µM in [7]. In addition, the inhibition in assay [1] stood at 96%.

With `Cn1cc(-c2ccc3ncnc(Nc4ccc5ncccc5c4)c3c2)cn1`, the IC50 in assay [3] is 0.874 µM; in [4] it was above 1 µM; with SK-BR-3, 0.064 µM; with A549 it was 1.38 µM; in the assay on MCF7 it was 0.49 µM; in the assay on MDA-MB-231, 26.3 µM. The IC50 in assay [5] amounted to 0.108 µM; in [6], 0.0441 µM; in assay [2], 10.9 µM; in assay [7] it was 0.93 µM. Besides, the inhibition in [1] stood at 101%.

Regarding `CC(Nc1ncnc2ncc(-c3cnn(C)c3)cc12)c1ccncc1` (stereo not drawn), the half-inhibitory concentration (IC50) (in the assay on SK-BR-3; in the assay on A549; with MCF7; with MDA-MB-231; in assay [2]) was above 100 µM each time. For the same compound, the inhibition in [1] was 0%.

With `Fc1ccc(Nc2ncnc3ccc(-c4cnn(C5CCNCC5)c4)cc23)cc1Cl`, the IC50 in [3] was 1.2 µM; in [4], above 1 µM; with SK-BR-3, 3.74 µM; with A549, 29.4 µM; with MCF7, 31.3 µM; in the assay on MDA-MB-231 it was 28.4 µM. In addition, the IC50 came out at 0.0391 µM in [5], 0.0319 µM in [6], 15.2 µM in assay [2] and 1.6 µM in assay [7]. In [1], the inhibition was 99%.

On to `CC(Nc1ncnc2ccc(-c3cnn(C4CCNCC4)c3)cc12)c1c(Cl)ccc(F)c1Cl` (stereo not drawn), for which the IC50 was determined as 4.39 µM in the assay with SK-BR-3; 7 µM in the assay on A549; 2.65 µM in the assay on MCF7; 12.6 µM with MDA-MB-231; 8.13 µM in [2]. Besides, in assay [1], the inhibition is 61%.

Take `CC(Oc1ncnc2ccc(-c3cnn(C)c3)cc12)c1c(Cl)ccc(F)c1Cl` (stereo not drawn): the IC50 in the assay with SK-BR-3 turned out to be 27.2 µM; in the assay with A549, 28.8 µM; with MCF7, 22.6 µM; in the assay with MDA-MB-231 it was 30 µM; in assay [2], 45.6 µM. Moreover, the inhibition in assay [1] is 11%.

For `COc1cccc(CNc2ncnc3ncc(-c4cnn(C)c4)cc23)c1`, the IC50 (in the assay on SK-BR-3; in the assay on A549; with MCF7; with MDA-MB-231; in assay [2]) was above 100 µM in each case. The inhibition in assay [1] was found to be 18%.

As for `CC(Nc1nc(N)nc2ccc(-c3cnn(C)c3)cc12)c1c(Cl)ccc(F)c1Cl` (stereo not drawn), the IC50 was 7.14 µM in the assay with SK-BR-3; above 100 µM in the assay with A549; 2.87 µM in the assay on MCF7; 7.96 µM in the assay with MDA-MB-231; 7.12 µM in [2]. Also, the inhibition in assay [1] came out at 12%.

On to `CC(Nc1ncnc2ncc(-c3cnn(C4CCNCC4)c3)cc12)c1c(Cl)ccc(F)c1Cl` (stereo not drawn), for which the IC50 with SK-BR-3 was found to be 17.7 µM; with A549, 29.7 µM; in the assay on MCF7 it was 1.63 µM; with MDA-MB-231 it was 7.11 µM; in assay [2], 13.5 µM. The inhibition in assay [1] worked out at 17%.

Consider `Cn1cc(-c2ccc3ncnc(Oc4ccc5ncccc5c4)c3c2)cn1`, for which the IC50 came out at 14.4 µM in the assay on SK-BR-3; 26.6 µM in the assay with A549; 22 µM in the assay on MCF7; 16.5 µM in the assay on MDA-MB-231; 24.3 µM in assay [2]. In assay [1], the inhibition stood at 43%.
